Results: patent US20260159536A1, “AKR1C3-ACTIVATED DNA ALKYLATING AGENT, AND MEDICAL APPLICATION THEREOF” (ASCENTAWITS PHARMACEUTICALS, LTD., priority 2021, published 2026)
Values joined by “and” are separate entries in the source; they are usually repeats but may differ in a detail not shown here. Identical values can stand only once. Like-named read-outs stand apart in the source and are kept apart here.

Assay: Blood-brain barrier assay of Compound A (plasma and brain concentration, PK)
Format: in vivo, CD-1 mice
Details: for concentration at 0.083 h / concentration at 0.25 h / concentration at 1 h / concentration at 2 h / concentration at 4 h / concentration at 8 h / Kp at 0.083 h / Kp at 0.25 h / Kp at 1 h / Kp at 2 h / Kp at 4 h / Kp at 8 h / Brain concentration / Plasma concentration / Ratio (Brain/Plasma): IV 1 mg/kg; for MRT inf: read-out: MRTInf_obs; for half-life: read-out: T½ (converted)
Experimental: Three CD-1 mice were administered 1 mg/kg of the test Compound A intravenously at each time point. Blood and brain tissue were taken at 5 min, 15 min, 1 h, 2 h, 4 h and 8 h after administration.
The PK (Pharmacokinetic) parameters obtained from the above assays were listed as follows, as shown in Table 33 and Table 34. • PK parameters, pharmacokinetic parameters. • T1/2, half-life. • Cl-obs, plasma clearance. • C0, starting concentration. • AUClast, area under the concentration-time curve from start of administration time to the last point. • AUCInf, area under the concentration-time curve from start of administration to the time at infinity. • Tmax, time to maximum observed plasma concentration. • Cmax, concentration to maximum observed plasma concentration. • MRTlnf-obs, represents the mean residence time from the start of administration to the time of theoretical extrapolation to infinity. • AUClnf Ration (Brain/Plasma), the ratio of the area under the concentration-time curve of serum and brain tissue from the start of administration to the time at infinity. • Unit, unit. • Mean, average value.

[1] = CD-1, mouse, iv, brain tissues, 1 mg/kg intravenously, Mean
[2] = CD-1, mouse, iv, plasma, 1 mg/kg intravenously, Mean
[3] = 0.083 h, individual animals, 1 mg/kg
[4] = 0.25 h, individual animals, 1 mg/kg
[5] = 1 h, individual animals, 1 mg/kg
[6] = 2 h, individual animals, 1 mg/kg
[7] = 4 h, individual animals, 1 mg/kg
[8] = 8 h, individual animals, 1 mg/kg

Question: For O=[N+]([O-])c1ccc(C(OP(=O)(N2CC2)N2CC2)C(F)(F)F)cc1Oc1ccc(-c2ccc(F)cc2)c(F)c1 (racemic) [Compound A], which blood-brain barrier penetration (1 mg/kg intravenously, within 8 hours) is on record?
Answer: can effectively penetrate the blood-brain barrier

Question: What about the concentration at 0.083 h (CD-1, mouse, brain, iv, 1 mg/kg, 0.083 h, individual animals, read-out: Brain concentration) of the same molecule?
Answer: 538 ng/g

Question: What about the concentration at 0.25 h (CD-1, mouse, brain, iv, 1 mg/kg, 0.25 h, individual animals, read-out: Brain concentration) of the same molecule?
Answer: 419 ng/g

Question: What about the concentration at 1 h (CD-1, mouse, brain, iv, 1 mg/kg, 1 h, individual animals, read-out: Brain concentration) of the same molecule?
Answer: 180 ng/g

Question: And the concentration at 2 h (CD-1, mouse, brain, iv, 1 mg/kg, 2 h, individual animals, read-out: Brain concentration)?
Answer: 107 ng/g

Question: What about the concentration at 4 h (CD-1, mouse, brain, iv, 1 mg/kg, 4 h, individual animals, read-out: Brain concentration) of the same molecule?
Answer: 71.2 ng/g

Question: What about the concentration at 8 h (CD-1, mouse, brain, iv, 1 mg/kg, 8 h, individual animals, read-out: Brain concentration) of the same molecule?
Answer: 23.6 ng/g

Question: What about the Kp (CD-1, mouse, brain/plasma, iv, 1 mg/kg, 1 mg/kg intravenously, Mean, read-out: AUCInf Ratio (Brain/Plasma)) of the same molecule?
Answer: 0.8

Question: And the Kp at 0.083 h (CD-1, mouse, brain/plasma, iv, 1 mg/kg, 0.083 h, individual animals, read-out: Ratio (Brain/Plasma))?
Answer: 1.17

Question: And the Kp at 0.083 h (CD-1, mouse, brain/plasma, iv, 1 mg/kg, 0.083 h, mean of 3 animals, read-out: Ratio (Brain/Plasma), Mean)?
Answer: 1.28

Question: And the Kp at 0.25 h (CD-1, mouse, brain/plasma, iv, 1 mg/kg, 0.25 h, individual animals, read-out: Ratio (Brain/Plasma))?
Answer: 1.13

Question: What about the Kp at 0.25 h (CD-1, mouse, brain/plasma, iv, 1 mg/kg, 0.25 h, mean of 3 animals, read-out: Ratio (Brain/Plasma), Mean) of the same molecule?
Answer: 1.15

Question: What about the Kp at 1 h (CD-1, mouse, brain/plasma, iv, 1 mg/kg, 1 h, individual animals, read-out: Ratio (Brain/Plasma)) of the same molecule?
Answer: 0.8

Question: What about the Kp at 1 h (CD-1, mouse, brain/plasma, iv, 1 mg/kg, 1 h, mean of 3 animals, read-out: Ratio (Brain/Plasma), Mean) of the same molecule?
Answer: 0.76

Question: What about the Kp at 2 h (CD-1, mouse, brain/plasma, iv, 1 mg/kg, 2 h, individual animals, read-out: Ratio (Brain/Plasma)) of the same molecule?
Answer: 0.71

Question: And the Kp at 2 h (CD-1, mouse, brain/plasma, iv, 1 mg/kg, 2 h, mean of 3 animals, read-out: Ratio (Brain/Plasma), Mean)?
Answer: 0.67

Question: What about the Kp at 4 h (CD-1, mouse, brain/plasma, iv, 1 mg/kg, 4 h, individual animals, read-out: Ratio (Brain/Plasma)) of the same molecule?
Answer: 0.74

Question: And the Kp at 4 h (CD-1, mouse, brain/plasma, iv, 1 mg/kg, 4 h, mean of 3 animals, read-out: Ratio (Brain/Plasma), Mean)?
Answer: 0.78

Question: And the Kp at 8 h (CD-1, mouse, brain/plasma, iv, 1 mg/kg, 8 h, individual animals, read-out: Ratio (Brain/Plasma))?
Answer: 0.48

Question: And the Kp at 8 h (CD-1, mouse, brain/plasma, iv, 1 mg/kg, 8 h, mean of 3 animals, read-out: Ratio (Brain/Plasma), Mean)?
Answer: 0.52

Question: And the Cmax [1]?
Answer: 543 ng/g

Question: What about the Tmax [1] of the same molecule?
Answer: 4.8 min

Question: And the MRT inf [1]?
Answer: 2.99 h

Question: What about the half-life [1] of the same molecule?
Answer: 2.8 h

Question: And the AUC(0-inf) [2]?
Answer: 1200 ng·h/mL

Question: What about the AUC(0-t) [2] of the same molecule?
Answer: 980 ng·h/mL

Question: And the C0 [2]?
Answer: 453 ng/mL

Question: And the MRT inf [2]?
Answer: 4.37 h

Question: What about the half-life [2] of the same molecule?
Answer: 3.64 h

Question: What about the concentration at 0.083 h (CD-1, mouse, plasma, iv, 1 mg/kg, 0.083 h, individual animals, read-out: Plasma concentration) of the same molecule?
Answer: 460 ng/mL

Question: And the concentration at 0.25 h (CD-1, mouse, plasma, iv, 1 mg/kg, 0.25 h, individual animals, read-out: Plasma concentration)?
Answer: 372 ng/mL

Question: What about the concentration at 1 h (CD-1, mouse, plasma, iv, 1 mg/kg, 1 h, individual animals, read-out: Plasma concentration) of the same molecule?
Answer: 229 ng/mL

Question: And the concentration at 2 h (CD-1, mouse, plasma, iv, 1 mg/kg, 2 h, individual animals, read-out: Plasma concentration)?
Answer: 150 ng/mL

Question: What about the concentration at 4 h (CD-1, mouse, plasma, iv, 1 mg/kg, 4 h, individual animals, read-out: Plasma concentration) of the same molecule?
Answer: 96.4 ng/mL

Question: What about the concentration at 8 h (CD-1, mouse, plasma, iv, 1 mg/kg, 8 h, individual animals, read-out: Plasma concentration) of the same molecule?
Answer: 48.8 ng/mL

Question: What about the Brain concentration [3] of the same molecule?
Answer: 540.75 ng/g and 549.95 ng/g

Question: What about the Plasma concentration [3] of the same molecule?
Answer: 400.55 ng/mL and 416.19 ng/mL

Question: And the “Ratio (Brain/Plasma)” value [3]?
Answer: 1.35 and 1.32

Question: And the Brain concentration [4]?
Answer: 489.60 ng/g and 371.38 ng/g

Question: And the Plasma concentration [4]?
Answer: 382.24 ng/mL and 384.54 ng/mL

Question: What about the “Ratio (Brain/Plasma)” value [4] of the same molecule?
Answer: 1.35 and 0.97

Question: What about the Brain concentration [5] of the same molecule?
Answer: 188.68 ng/g and 169.85 ng/g

Question: And the Plasma concentration [5]?
Answer: 238.84 ng/mL and 249.07 ng/mL

Question: What about the “Ratio (Brain/Plasma)” value [5] of the same molecule?
Answer: 0.79 and 0.68

Question: What about the Brain concentration [6] of the same molecule?
Answer: 94.27 ng/g and 77.50 ng/g

Question: And the Plasma concentration [6]?
Answer: 134.42 ng/mL and 131.84 ng/mL

Question: And the “Ratio (Brain/Plasma)” value [6]?
Answer: 0.70 and 0.59

Question: What about the Brain concentration [7] of the same molecule?
Answer: 68.47 ng/g and 42.73 ng/g

Question: And the Plasma concentration [7]?
Answer: 74.91 ng/mL and 63.17 ng/mL

Question: What about the “Ratio (Brain/Plasma)” value [7] of the same molecule?
Answer: 0.91 and 0.88

Question: And the Brain concentration [8]?
Answer: 21.85 ng/g and 18.85 ng/g

Question: What about the Plasma concentration [8] of the same molecule?
Answer: 49.05 ng/mL and 29.91 ng/mL

Question: What about the “Ratio (Brain/Plasma)” value [8] of the same molecule?
Answer: 0.45 and 0.83
